Results from ChEMBL document CHEMBL5550088, “Design, synthesis and evaluate of indazolylaminoquinazoline derivatives as potent Tropomyosin receptor kinase (TRK) inhibitors” (Bioorg Med Chem, 2024).

Tests used:
[1] = biological target: High affinity nerve growth factor receptor (Homo sapiens, UniProt P04629); assay: Inhibition of wild type TRKA (unknown origin) preincubated for 30 mins followed by ATP and U Light-poly GT addition and measured after 2 hrs by multilabel plate reader method
[2] = system: BaF3; assay: cells; details: Mus musculus, BaF3, 72 h
[3] = system: BaF3; assay: Antiproliferative activity against mouse BaF3 cells harbouring ETV6-TRKB wildtype assessed as cell viability measured after 72 hrs by CCK-8 method; details: BaF3, 72 h
[4] = system: BaF3; assay: Antiproliferative activity against mouse BaF3 cells harbouring ETV6-TRKA wildtype assessed as cell viability measured after 72 hrs by CCK-8 method; details: BaF3, 72 h
[5] = system: BaF3; assay: cells; details: Mus musculus, BaF3, 72 h; remark: listed apart in the source

Sequence of High affinity nerve growth factor receptor (P04629 whole entry): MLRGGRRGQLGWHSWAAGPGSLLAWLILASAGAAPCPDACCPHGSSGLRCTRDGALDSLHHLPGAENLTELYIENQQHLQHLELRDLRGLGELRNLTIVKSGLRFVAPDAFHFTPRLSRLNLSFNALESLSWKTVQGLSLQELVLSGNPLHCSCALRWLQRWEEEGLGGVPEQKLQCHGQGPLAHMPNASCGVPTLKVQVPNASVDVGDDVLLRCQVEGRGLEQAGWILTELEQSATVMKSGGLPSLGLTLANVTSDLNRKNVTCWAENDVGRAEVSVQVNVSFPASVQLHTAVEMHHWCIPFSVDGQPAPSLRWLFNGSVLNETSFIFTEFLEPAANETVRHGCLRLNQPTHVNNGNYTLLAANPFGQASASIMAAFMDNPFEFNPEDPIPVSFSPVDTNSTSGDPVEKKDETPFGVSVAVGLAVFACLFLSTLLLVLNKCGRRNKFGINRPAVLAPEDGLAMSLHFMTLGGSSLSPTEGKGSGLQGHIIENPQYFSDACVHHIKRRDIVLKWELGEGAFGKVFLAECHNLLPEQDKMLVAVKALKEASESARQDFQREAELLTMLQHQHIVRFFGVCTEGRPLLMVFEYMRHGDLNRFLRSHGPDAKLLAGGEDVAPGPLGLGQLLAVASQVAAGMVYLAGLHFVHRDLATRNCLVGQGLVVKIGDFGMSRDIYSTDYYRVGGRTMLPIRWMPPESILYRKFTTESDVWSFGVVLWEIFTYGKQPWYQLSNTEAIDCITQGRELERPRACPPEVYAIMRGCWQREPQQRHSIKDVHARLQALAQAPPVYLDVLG

| IC50 [1] | IC50 [2] | IC50 [3] | IC50 [4] | IC50 [5] | Structure (SMILES) |
| --- | --- | --- | --- | --- | --- |
| 2.3 nM |  |  |  |  | CN(C)C1CCN(c2ccc3c(Nc4n[nH]c5ccc(Cc6cc(F)cc(F)c6)cc45)ncnc3c2)C1 (stereo unspecified) |
|  | 2890 nM | 4.9 nM | 14.6 nM | 755 nM | O=C(Nc1cnn2ccc(N3CCC[C@@H]3c3cc(F)ccc3F)nc12)N1CC[C@H](O)C1 [LAROTRECTINIB] |
| 1.9 nM |  |  |  |  | CN(C)C1CCN(c2ccc3c(Nc4n[nH]c5ccc(Cc6cc(F)cc(F)c6)cc45)n[nH]c3c2)C1 (stereo unspecified) |
